Data reported in patent US20220257552A1, “METHODS OF PRESCREENING AND TREATING BREAST CANCERS WITH SELECTIVE ANDROGEN RECEPTOR MODULATORS” (priority 2021, published 2022).

Columns and labels:
[1] = system: MDA-MB-231 breast cancer cells stably transfected with AR; assay: Proliferation of MDA-MB-231 cells stably transfected with AR (Coulter counter); assay type: cell-based; conditions: 6 days, cell count
Procedure: MDA-MB-231 cells stably transfected with AR using lentivirus were treated with the indicated ligands for 6 days and the number of cells counted using Coulter counter.

MDA-MB-231-AR cells = assay: Morphology of MDA-MB-231-AR cells; assay type: cell-based; conditions: 3 days
Procedure: MDA-MB-231 cells were stably transfected with AR using lentivirus. […] Live cells were visualized using a light-microscope and photographed. The cells were imaged at the same magnification and under the same microscopic conditions.
MDA-MB-231 cells were stably transfected with AR using lentivirus and were treated with vehicle or AR agonists at the indicated concentrations. At the end of 3 days of incubation, the cells were imaged under a microscope (40×).

PR = molecular target: T1, PR (Rattus norvegicus, UniProt Q63449); assay: PR transactivation in HEK-293 cells; assay type: cell-based
T1 construct: expressed in transfected cells
T1 sequence (Q63449 1-923): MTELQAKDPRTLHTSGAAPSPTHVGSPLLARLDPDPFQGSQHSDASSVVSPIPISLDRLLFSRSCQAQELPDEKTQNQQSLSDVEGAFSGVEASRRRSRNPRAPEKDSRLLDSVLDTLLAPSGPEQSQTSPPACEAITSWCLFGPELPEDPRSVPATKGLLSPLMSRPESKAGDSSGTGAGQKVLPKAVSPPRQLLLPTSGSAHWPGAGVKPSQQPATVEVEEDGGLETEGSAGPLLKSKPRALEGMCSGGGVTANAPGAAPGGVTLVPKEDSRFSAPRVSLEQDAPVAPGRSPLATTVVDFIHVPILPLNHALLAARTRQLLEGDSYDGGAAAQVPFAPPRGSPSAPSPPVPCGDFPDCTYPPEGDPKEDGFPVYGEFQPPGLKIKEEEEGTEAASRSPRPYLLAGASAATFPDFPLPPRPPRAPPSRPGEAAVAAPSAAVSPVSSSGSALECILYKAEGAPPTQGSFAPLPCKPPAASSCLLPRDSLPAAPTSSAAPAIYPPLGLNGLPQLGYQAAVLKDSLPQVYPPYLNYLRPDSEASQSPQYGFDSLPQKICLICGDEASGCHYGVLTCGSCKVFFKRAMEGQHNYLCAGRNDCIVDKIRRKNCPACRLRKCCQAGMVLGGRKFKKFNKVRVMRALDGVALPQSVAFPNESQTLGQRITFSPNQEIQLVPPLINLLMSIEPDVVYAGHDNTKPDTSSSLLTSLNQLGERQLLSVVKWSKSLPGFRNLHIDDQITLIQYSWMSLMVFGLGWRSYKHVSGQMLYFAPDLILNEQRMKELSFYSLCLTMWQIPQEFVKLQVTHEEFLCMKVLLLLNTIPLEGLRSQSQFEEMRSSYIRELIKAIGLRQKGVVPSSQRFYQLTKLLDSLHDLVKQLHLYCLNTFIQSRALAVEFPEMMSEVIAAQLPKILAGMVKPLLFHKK
Procedure: Rat GR, MR, PR, ER-α and ER-β were individually cloned into a pCR3.1 vector backbone. Sequencing was performed to verify the absence of any mutations. HEK-293 cells were plated at 90,000 cells per well of a 24 well plate in Dulbecco's Minimal Essential Media supplemented with 5% charcoal-stripped FBS. […] Luciferase assays were performed 48 h after transfection. Transcriptional activation values are represented as firefly luciferase normalized to renilla luciferase.

[2] = system: MDA-MB-231-AR triple negative breast cancer cells; assay: MDA-MB-231-AR xenograft in nude mice; assay type: in vivo; conditions: for body weight / tumor weights: all doses
Procedure: MDA-MB-231-AR triple negative breast cancer cells (2 million cells/mouse; MDA-MB-231 cells stably transfected with AR using lentivirus) were mixed with matrigel (1:1) and injected subcutaneously into the flanks of intact female nude mice (n=5/group). When the tumors reached 150-200 mm^3, the animals were separated into two groups, one receiving vehicle and the other receiving 30 mg/kg Formula VIII orally. Tumor volume was measured thrice weekly and % tumor growth inhibition (TGI) was calculated. At the end of 35 days of treatment, the animals were sacrificed, tumors excised, weighed, and collected for various analyses. Blood was collected and serum separated for drug concentration measurement.

AR = molecular target: T2, AR (Homo sapiens, UniProt P10275); assay: AR transactivation (GRE-LUC) in HEK-293 or MDA-MB-231 cells; assay type: cell-based; parameters: expressed in transfected cells; conditions: HEK-293 and MDA-MB-231 cells
T2 sequence (P10275 1-920): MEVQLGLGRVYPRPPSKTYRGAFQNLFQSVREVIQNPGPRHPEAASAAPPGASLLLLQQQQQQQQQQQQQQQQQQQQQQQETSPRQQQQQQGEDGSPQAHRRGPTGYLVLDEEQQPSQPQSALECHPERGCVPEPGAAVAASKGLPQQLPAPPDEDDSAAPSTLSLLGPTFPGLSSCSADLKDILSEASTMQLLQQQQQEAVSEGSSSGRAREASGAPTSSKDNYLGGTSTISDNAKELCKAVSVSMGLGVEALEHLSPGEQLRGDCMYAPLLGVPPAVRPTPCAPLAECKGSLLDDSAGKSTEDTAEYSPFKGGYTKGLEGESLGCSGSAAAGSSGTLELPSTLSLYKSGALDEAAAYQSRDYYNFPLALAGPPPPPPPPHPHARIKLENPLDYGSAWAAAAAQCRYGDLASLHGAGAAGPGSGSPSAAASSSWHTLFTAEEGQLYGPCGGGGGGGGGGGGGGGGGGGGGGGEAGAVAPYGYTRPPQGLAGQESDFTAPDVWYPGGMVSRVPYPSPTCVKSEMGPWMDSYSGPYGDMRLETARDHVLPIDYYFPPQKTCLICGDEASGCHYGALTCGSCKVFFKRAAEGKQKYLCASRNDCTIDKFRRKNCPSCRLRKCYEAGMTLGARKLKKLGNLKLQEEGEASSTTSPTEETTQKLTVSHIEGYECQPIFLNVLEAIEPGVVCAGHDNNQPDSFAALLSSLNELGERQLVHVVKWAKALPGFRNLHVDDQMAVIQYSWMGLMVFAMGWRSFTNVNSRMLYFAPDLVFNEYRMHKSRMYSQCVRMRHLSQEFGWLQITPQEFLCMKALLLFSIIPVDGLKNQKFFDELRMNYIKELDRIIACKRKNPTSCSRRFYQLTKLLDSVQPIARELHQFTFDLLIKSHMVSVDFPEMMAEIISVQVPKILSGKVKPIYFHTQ
Procedure: Though AR transactivation assay was performed in HEK-293 cells, the ability of ligands to function as agonists or antagonists depends on cellular microenvironment. […] The cells were treated 24 h after transfection and luciferase assay performed 48 h after transfection.

Row | Compound | proliferation [1] | cell morphology (MDA-MB-231-AR cells) | IC50 (PR) | body weight [2] | tumor weights [2] | AR transactivation (AR) | PR antagonist potency relative to Formula IX (more potent) (PR) | PR antagonist potency relative to R-enantiomer of Formula IX (more potent) (PR) | PR antagonist potency relative to RU486 (weaker) (PR) | transactivation of PR, increase (PR; 1 μM) | transactivation of PR, increase (PR; 10 μM) | weaker than the endogenous agonist for PR (PR; vs progesterone) | uterus weight ([2]; 30 mg/kg orally) | toxicity / body weight ([2]; 30 mg/kg orally, 35 days)
1 | C[C@](O)(COc1ccc(C#N)cc1)C(=O)Nc1ccc(C#N)c(C(F)(F)F)c1 [Formula IX, (S)—N-(4-Cyano-3-(trifluoromethyl)phenyl)-3-(4-cyanophenoxy)-2-hydroxy-2-methylpropanamide] | inhibited the proliferation | altered the morphology into a more anchored phenotype | 0.163 µM | increase of body weight | reduced | agonists of AR | – | – | – | – | – | – | – | –
2 | C[C@](O)(COc1ccc(C#N)cc1)C(=O)Nc1ccc(C#N)c(Cl)c1 [Formula VIII, (S)—N-(3-chloro-4-cyanophenyl)-3-(4-cyanophenoxy)-2-hydroxy-2-methylpropanamide] | inhibited the proliferation | altered the morphology into a more anchored phenotype | 0.0171 µM | increase of body weight | reduced | agonists of AR | 10 times | 100 times | about 1,000 fold | 3 fold | 8 fold | greater than 10,000 fold | increased | without any associated toxicity or changes in body weight
